This is an account of results in ChEMBL document CHEMBL3045532, “Synthesis and evaluation of novel prodrugs of naproxen” (Med Chem Res, 2011).

Each structure is given as a SMILES string.

In series [1] the test system is Mus musculus. The series is described as follows: Analgesic activity in Mus musculus (mouse) assessed as inhibition of acetic acid-induced writhing at 67.4 mg/kg, po pretreated 1 hr before acetic acid challenge. It counts as functional. Background: Writhing tests count abdominal constrictions after an irritant is injected.
The test system of series [2] is Rattus norvegicus. Briefly: Anti-inflammatory activity in Rattus norvegicus Wistar (rat) assessed as inhibition of carrageenan-induced edema volume at 67.4 mg/kg, po measured after 90 min. Format: functional. As to conditions: 1.5 h. Background: In the carrageenan paw model, swelling and tenderness develop within hours.
Series [3] deals with Rattus norvegicus. The series is described as follows: Gastrointestinal toxicity in Rattus norvegicus Wistar (rat) assessed as ulcer at 69.4 mg/kg, po. It counts as organism-based. The arrangement: dose 69.4 mg/kg, route oral. As to conditions: in vivo.
For series [4], the system named is Rattus norvegicus. The series is described as follows: Anti-inflammatory activity in Rattus norvegicus Wistar (rat) assessed as inhibition of carrageenan-induced edema volume at 67.4 mg/kg, po measured after 30 min. It counts as functional. The settings on record: 0.5 h.
Series [5] has as its system Rattus norvegicus. The series is described as follows: Anti-inflammatory activity in Rattus norvegicus Wistar (rat) assessed as inhibition of carrageenan-induced edema volume at 67.4 mg/kg, po measured after 120 min. It counts as functional. As to conditions: 2 h.
In series [6] the test system is Rattus norvegicus. Briefly: Anti-inflammatory activity in Rattus norvegicus Wistar (rat) assessed as inhibition of carrageenan-induced edema volume at 67.4 mg/kg, po measured after 60 min. It counts as functional. As to conditions: 1 h.
The subject of series [7] is Mus musculus. The series is described as follows: Analgesic activity in Mus musculus (mouse) assessed as inhibition of acetic acid-induced writhing at 66.2 mg/kg, po pretreated 1 hr before acetic acid challenge. It counts as functional.
For series [8], the system named is Rattus norvegicus. Briefly: Anti-inflammatory activity in Rattus norvegicus Wistar (rat) assessed as inhibition of carrageenan-induced edema volume at 66.2 mg/kg, po measured after 30 min. Format: functional. As to conditions: 0.5 h.
In series [9] the test system is Rattus norvegicus. The series is described as follows: Anti-inflammatory activity in Rattus norvegicus Wistar (rat) assessed as inhibition of carrageenan-induced edema volume at 66.2 mg/kg, po measured after 120 min. Format: functional. As to conditions: 2 h.
Series [10] has as its system Rattus norvegicus. Briefly: Anti-inflammatory activity in Rattus norvegicus Wistar (rat) assessed as inhibition of carrageenan-induced edema volume at 66.2 mg/kg, po measured after 90 min. Format: functional. As to conditions: 1.5 h.
Series [11] deals with Rattus norvegicus. The series is described as follows: Anti-inflammatory activity in Rattus norvegicus Wistar (rat) assessed as inhibition of carrageenan-induced edema volume at 66.2 mg/kg, po measured after 60 min. It counts as functional. The settings on record: 1 h.
For series [12], the system named is Rattus norvegicus. The series is described as follows: Anti-inflammatory activity in Rattus norvegicus Wistar (rat) assessed as inhibition of carrageenan-induced edema volume at 67.8 mg/kg, po measured after 60 min. The settings on record: 1 h. Format: functional.
Series [13] deals with Mus musculus. Briefly: Analgesic activity in Mus musculus (mouse) assessed as inhibition of acetic acid-induced writhing at 67.8 mg/kg, po pretreated 1 hr before acetic acid challenge. It counts as functional.
Series [14] relates to Rattus norvegicus. Briefly: Anti-inflammatory activity in Rattus norvegicus Wistar (rat) assessed as inhibition of carrageenan-induced edema volume at 67.8 mg/kg, po measured after 120 min. It counts as functional. As to conditions: 2 h.
Series [15] has as its system Rattus norvegicus. Briefly: Anti-inflammatory activity in Rattus norvegicus Wistar (rat) assessed as inhibition of carrageenan-induced edema volume at 67.8 mg/kg, po measured after 90 min. As to conditions: 1.5 h. Format: functional.
For series [16], the system named is Rattus norvegicus. Briefly: Anti-inflammatory activity in Rattus norvegicus Wistar (rat) assessed as inhibition of carrageenan-induced edema volume at 67.8 mg/kg, po measured after 30 min. It counts as functional. The settings on record: 0.5 h.
Series [17] deals with Rattus norvegicus. The series is described as follows: Anti-inflammatory activity in Rattus norvegicus Wistar (rat) assessed as inhibition of carrageenan-induced edema volume at 69.4 mg/kg, po measured after 120 min. It counts as functional. As to conditions: 2 h.
Series [18] can be described thus: Prodrug conversion in phosphate buffer assessed as half-life for hydrolysis at pH 7.4. It counts as physicochemical.
Series [19] in a line: Prodrug conversion in acetate buffer assessed as half-life for hydrolysis at pH 3. It counts as physicochemical.
Series [20] deals with Mus musculus. The series is described as follows: Analgesic activity in Mus musculus (mouse) assessed as inhibition of acetic acid-induced writhing at 69.4 mg/kg, po pretreated 1 hr before acetic acid challenge. Format: functional.
For series [21], the system named is Rattus norvegicus. Briefly: Anti-inflammatory activity in Rattus norvegicus Wistar (rat) assessed as inhibition of carrageenan-induced edema volume at 69.4 mg/kg, po measured after 90 min. Format: functional. The settings on record: 1.5 h.
Series [22] is described as follows: Prodrug conversion in acetate buffer assessed as half-life for hydrolysis at pH 5. Format: physicochemical.
Series [23] deals with Rattus norvegicus. The series is described as follows: Anti-inflammatory activity in Rattus norvegicus Wistar (rat) assessed as inhibition of carrageenan-induced edema volume at 69.4 mg/kg, po measured after 30 min. It counts as functional. As to conditions: 0.5 h.
For series [24], the system named is Rattus norvegicus. Briefly: Anti-inflammatory activity in Rattus norvegicus Wistar (rat) assessed as inhibition of carrageenan-induced edema volume at 69.4 mg/kg, po measured after 60 min. Format: functional. As to conditions: 1 h.
A short description of series [25]: Prodrug conversion in acetate buffer assessed as half-life for hydrolysis at pH 4. It counts as physicochemical.
Series [26] relates to Rattus norvegicus. The series is described as follows: Anti-inflammatory activity in Rattus norvegicus Wistar (rat) assessed as inhibition of carrageenan-induced edema volume at 67.0 mg/kg, po measured after 60 min. Format: functional. The settings on record: 1 h.
Series [27] deals with Mus musculus. The series is described as follows: Analgesic activity in Mus musculus (mouse) assessed as inhibition of acetic acid-induced writhing at 67 mg/kg, po pretreated 1 hr before acetic acid challenge. Format: functional.
For series [28], the system named is Rattus norvegicus. The series is described as follows: Anti-inflammatory activity in Rattus norvegicus Wistar (rat) assessed as inhibition of carrageenan-induced edema volume at 67.0 mg/kg, po measured after 90 min. Format: functional. As to conditions: 1.5 h.
Series [29] concerns Rattus norvegicus. The series is described as follows: Anti-inflammatory activity in Rattus norvegicus Wistar (rat) assessed as inhibition of carrageenan-induced edema volume at 67.0 mg/kg, po measured after 120 min. Format: functional. As to conditions: 2 h.
Series [30] relates to Rattus norvegicus. The series is described as follows: Anti-inflammatory activity in Rattus norvegicus Wistar (rat) assessed as inhibition of carrageenan-induced edema volume at 67.0 mg/kg, po measured after 30 min. Format: functional. As to conditions: 0.5 h.

One may read the inhibition in vivo as the change of the read-out against control, counted positive when it falls. With `COc1ccc2cc(C(C)C(=O)OCC(OC(C)=O)C(OC(C)=O)C(OC(C)=O)C(/C=N/[C@@H](CC(C)C)C(=O)O)OC(C)=O)ccc2c1` (stereo not given in full), the inhibition in vivo at 67.4 mg/kg in the series on Mus musculus [1] came out at 70.5%; with Rattus norvegicus [2] it was 32%; in the series with Rattus norvegicus [4], 46%; in the series with Rattus norvegicus [5], 64%; with Rattus norvegicus [6], 30%. Besides, the Activity result in the series with Rattus norvegicus [3] is “Non-toxic”.
On to `COc1ccc2cc(C(C)C(=O)OCC(OC(C)=O)C(OC(C)=O)C(OC(C)=O)C(/C=N/[C@H](C(=O)O)[C@@H](C)O)OC(C)=O)ccc2c1` (stereo not given in full), for which the inhibition in vivo at 66.2 mg/kg with Mus musculus [7] turned out to be 60.4%; in the series on Rattus norvegicus [8] it was 18%; with Rattus norvegicus [9], 58%; with Rattus norvegicus [10], 39%; in the series with Rattus norvegicus [11] it was 24%.
As to `COc1ccc2cc(C(C)C(=O)OCC(OC(C)=O)C(OC(C)=O)C(OC(C)=O)C(/C=N/[C@@H](Cc3ccccc3)C(=O)O)OC(C)=O)ccc2c1` (stereo not given in full), the inhibition in vivo at 67.8 mg/kg came to 13% in the series on Rattus norvegicus [12]; 91.2% in the series with Mus musculus [13]; 69% in the series on Rattus norvegicus [14]; 47% in the series on Rattus norvegicus [15]; 22% in the series on Rattus norvegicus [16].
`COc1ccc2cc(C(C)C(=O)OCC(OC(C)=O)C(OC(C)=O)C(OC(C)=O)C(/C=N/[C@@H](Cc3ccc(O)cc3)C(=O)O)OC(C)=O)ccc2c1` (stereo not given in full): the inhibition in vivo at 69.4 mg/kg in the series with Rattus norvegicus [17] stood at 67%; in the series with Mus musculus [20] it was 82%; in the series on Rattus norvegicus [21] it was 47%; in the series with Rattus norvegicus [23] it was 60%; in the series on Rattus norvegicus [24], 25%. Besides, the t1/2 in series [18] is 18 h; in series [19], 22 h; in [22] it was 50 h; in series [25] it was 67 h.
Consider `COc1ccc2cc(C(C)C(=O)OCC(OC(C)=O)C(OC(C)=O)C(OC(C)=O)C(/C=N/[C@@H](Cc3cnc[nH]3)C(=O)O)OC(C)=O)ccc2c1` (stereo not given in full), for which the inhibition in vivo at 67 mg/kg is 13% with Rattus norvegicus [26]; 65.9% in the series with Mus musculus [27]; 39% in the series with Rattus norvegicus [28]; 58% in the series with Rattus norvegicus [29]; 26% with Rattus norvegicus [30].
